Source: patent US10526316B2, “Quinoxaline and pyridopyrazine derivatives as PI3Kβ inhibitors” (Janssen Pharmaceutica NV, priority 2015, dated 2020)
Where two headings read alike, the source gives them in different places.

Assays:
PI3Kβ = molecular target: T1, PI3Kβ (Homo sapiens, UniProt P42338); assay: Enzyme binding assay (KINOMEscan, DiscoveRx); settings: PIK3Cβ_h, read-out: Kd PIK3Cβ_h
T1 construct: purchased DiscoveRx Corporation, San Diego (contract service, KINOMEscan)
Procedure, shortened: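 Values are Kd in nM, the binding constant of each inhibitor for the kinase, obtained from a KINOMEscan enzyme binding assay.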

PI3Kδ = molecular target: T2, PI3Kδ (Homo sapiens, UniProt O00329); assay: Enzyme binding assay (KINOMEscan, DiscoveRx); settings: PIK3Cδ_h
T2 construct: purchased DiscoveRx Corporation, San Diego (contract service, KINOMEscan)
T2 sequence (O00329 1-1044): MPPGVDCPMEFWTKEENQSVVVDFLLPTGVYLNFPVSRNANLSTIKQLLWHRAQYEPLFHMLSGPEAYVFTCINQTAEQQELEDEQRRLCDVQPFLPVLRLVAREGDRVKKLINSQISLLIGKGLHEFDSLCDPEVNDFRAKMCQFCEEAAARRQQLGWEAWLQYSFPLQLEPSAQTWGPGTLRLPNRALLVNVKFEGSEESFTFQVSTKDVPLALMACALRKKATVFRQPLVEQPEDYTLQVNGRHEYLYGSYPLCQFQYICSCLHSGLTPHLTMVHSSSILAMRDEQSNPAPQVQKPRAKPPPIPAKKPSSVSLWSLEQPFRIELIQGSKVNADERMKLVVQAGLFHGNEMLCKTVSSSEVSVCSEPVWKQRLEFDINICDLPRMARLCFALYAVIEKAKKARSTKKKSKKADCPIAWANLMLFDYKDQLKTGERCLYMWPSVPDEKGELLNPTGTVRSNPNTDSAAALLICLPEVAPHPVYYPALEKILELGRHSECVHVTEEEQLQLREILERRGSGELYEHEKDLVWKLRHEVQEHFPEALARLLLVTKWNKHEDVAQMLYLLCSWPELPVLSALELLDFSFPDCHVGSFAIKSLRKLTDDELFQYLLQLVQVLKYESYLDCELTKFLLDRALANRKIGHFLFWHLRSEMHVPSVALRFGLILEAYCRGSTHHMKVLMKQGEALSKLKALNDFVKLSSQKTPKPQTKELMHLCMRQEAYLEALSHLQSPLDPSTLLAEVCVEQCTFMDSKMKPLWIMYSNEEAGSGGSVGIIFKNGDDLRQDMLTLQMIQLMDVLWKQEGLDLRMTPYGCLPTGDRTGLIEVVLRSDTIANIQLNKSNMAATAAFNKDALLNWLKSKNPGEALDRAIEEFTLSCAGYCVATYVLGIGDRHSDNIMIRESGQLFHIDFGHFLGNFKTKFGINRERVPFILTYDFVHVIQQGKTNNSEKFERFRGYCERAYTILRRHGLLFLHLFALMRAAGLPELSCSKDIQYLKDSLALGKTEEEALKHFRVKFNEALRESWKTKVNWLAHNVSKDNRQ
Procedure, shortened: (§1)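 Affinity for each kinase was determined by KINOMEscan profiling.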

kinase enzymes [1] = molecular target: T3, kinase enzymes (Homo sapiens, UniProt P42336); assay: Enzyme binding assay (KINOMEscan, DiscoveRx), further kinases of Table A; settings: PIK3Cα_h
T3 construct: purchased DiscoveRx Corporation, San Diego (contract service, KINOMEscan)
Procedure, shortened: as §1

kinase enzymes [2] = molecular target: T4, kinase enzymes (Homo sapiens, UniProt P42345); assay: as above; settings: MTOR_h
T4 construct: purchased DiscoveRx Corporation, San Diego (contract service, KINOMEscan)
Procedure, shortened: as §1

kinase enzymes [3] = molecular target: T5, kinase enzymes (Homo sapiens, UniProt P48736); assay: as above; settings: PIK3Cγ_h
T5 construct: purchased DiscoveRx Corporation, San Diego (contract service, KINOMEscan)
Procedure, shortened: as §1

[4] = system: Akt phosphorylated at Ser473 in PC-3 cells; assay: Cellular assay: phosphorylation of Akt at Ser473 in PC-3 cells (MSD ELISA); format: cell-based; settings: PC-3 cells, 60 min compound incubation, MSD ELISA, read-out: IC50 pAkt_S473
Procedure, shortened: (§2)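 Electrochemiluminescent sandwich ELISA read-out: phospho-specific capture (Ser473 or Thr308), Sulfo-tag anti-total Akt detection, signal proportional to phospho-Akt. Cells treated 60 min at 37° C with compound, DMSO 0.3%. IC50 fitted from five concentrations.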

[5] = system: Akt phosphorylated at Thr308 in PC-3 cells; assay: Cellular assay: phosphorylation of Akt at Thr308 in PC-3 cells (MSD ELISA); format: cell-based; settings: PC-3 cells, 60 min compound incubation, MSD ELISA, read-out: IC50 pAkt_Thr308
Procedure, shortened: as §2

T5 sequence (P48736 whole entry): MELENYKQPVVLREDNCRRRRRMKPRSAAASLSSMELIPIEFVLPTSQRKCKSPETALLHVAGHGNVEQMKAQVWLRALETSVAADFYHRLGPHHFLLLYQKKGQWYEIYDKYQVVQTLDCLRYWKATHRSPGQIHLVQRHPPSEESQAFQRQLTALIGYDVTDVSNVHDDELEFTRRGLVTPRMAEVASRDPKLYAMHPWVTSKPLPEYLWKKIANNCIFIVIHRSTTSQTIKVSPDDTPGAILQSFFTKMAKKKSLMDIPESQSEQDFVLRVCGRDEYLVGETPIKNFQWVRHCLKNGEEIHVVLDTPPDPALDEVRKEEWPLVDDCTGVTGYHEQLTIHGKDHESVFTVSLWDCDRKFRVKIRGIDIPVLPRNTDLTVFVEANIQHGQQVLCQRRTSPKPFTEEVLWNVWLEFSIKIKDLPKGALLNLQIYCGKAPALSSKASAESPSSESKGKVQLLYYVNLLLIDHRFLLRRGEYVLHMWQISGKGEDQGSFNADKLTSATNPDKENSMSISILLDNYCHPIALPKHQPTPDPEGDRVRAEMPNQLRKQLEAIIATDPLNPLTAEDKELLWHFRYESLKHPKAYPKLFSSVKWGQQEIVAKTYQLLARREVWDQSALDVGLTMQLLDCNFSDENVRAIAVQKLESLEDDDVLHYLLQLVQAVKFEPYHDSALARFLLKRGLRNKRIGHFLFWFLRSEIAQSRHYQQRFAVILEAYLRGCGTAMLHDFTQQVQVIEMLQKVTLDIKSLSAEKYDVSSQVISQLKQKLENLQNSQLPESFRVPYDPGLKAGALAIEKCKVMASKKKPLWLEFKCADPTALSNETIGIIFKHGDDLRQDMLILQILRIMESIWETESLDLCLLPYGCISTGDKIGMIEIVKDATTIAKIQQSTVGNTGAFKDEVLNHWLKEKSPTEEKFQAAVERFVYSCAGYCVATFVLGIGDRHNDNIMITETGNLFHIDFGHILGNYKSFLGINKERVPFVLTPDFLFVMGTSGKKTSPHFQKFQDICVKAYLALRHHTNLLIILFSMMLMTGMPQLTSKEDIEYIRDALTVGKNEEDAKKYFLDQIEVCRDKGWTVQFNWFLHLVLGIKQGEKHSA
T3 sequence (P42336 whole entry): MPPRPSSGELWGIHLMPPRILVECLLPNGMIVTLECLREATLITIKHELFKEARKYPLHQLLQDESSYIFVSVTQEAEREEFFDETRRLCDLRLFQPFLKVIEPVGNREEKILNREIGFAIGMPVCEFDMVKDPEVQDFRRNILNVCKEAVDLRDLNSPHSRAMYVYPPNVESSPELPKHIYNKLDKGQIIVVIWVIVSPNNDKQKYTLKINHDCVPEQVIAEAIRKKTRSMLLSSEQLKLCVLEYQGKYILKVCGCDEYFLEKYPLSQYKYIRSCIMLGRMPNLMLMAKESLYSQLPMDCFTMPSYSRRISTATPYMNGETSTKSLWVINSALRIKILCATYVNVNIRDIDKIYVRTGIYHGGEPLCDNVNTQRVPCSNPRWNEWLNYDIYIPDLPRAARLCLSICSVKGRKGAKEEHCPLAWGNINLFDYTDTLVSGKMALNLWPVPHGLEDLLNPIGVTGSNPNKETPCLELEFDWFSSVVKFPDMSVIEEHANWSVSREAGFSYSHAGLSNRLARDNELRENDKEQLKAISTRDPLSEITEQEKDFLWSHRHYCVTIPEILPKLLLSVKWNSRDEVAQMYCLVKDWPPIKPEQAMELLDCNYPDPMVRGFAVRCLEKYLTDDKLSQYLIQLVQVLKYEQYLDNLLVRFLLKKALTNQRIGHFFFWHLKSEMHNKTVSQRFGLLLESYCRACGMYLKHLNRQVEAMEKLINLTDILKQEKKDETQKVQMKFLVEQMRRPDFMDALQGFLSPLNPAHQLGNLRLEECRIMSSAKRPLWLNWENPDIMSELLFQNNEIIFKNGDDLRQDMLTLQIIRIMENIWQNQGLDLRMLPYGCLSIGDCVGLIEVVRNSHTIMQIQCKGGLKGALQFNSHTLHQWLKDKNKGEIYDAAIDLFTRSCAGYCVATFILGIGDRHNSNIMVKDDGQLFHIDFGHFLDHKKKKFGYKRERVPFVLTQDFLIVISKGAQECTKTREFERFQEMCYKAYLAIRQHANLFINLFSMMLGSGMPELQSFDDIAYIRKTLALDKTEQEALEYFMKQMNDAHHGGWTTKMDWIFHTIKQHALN
T1 sequence (P42338 whole entry): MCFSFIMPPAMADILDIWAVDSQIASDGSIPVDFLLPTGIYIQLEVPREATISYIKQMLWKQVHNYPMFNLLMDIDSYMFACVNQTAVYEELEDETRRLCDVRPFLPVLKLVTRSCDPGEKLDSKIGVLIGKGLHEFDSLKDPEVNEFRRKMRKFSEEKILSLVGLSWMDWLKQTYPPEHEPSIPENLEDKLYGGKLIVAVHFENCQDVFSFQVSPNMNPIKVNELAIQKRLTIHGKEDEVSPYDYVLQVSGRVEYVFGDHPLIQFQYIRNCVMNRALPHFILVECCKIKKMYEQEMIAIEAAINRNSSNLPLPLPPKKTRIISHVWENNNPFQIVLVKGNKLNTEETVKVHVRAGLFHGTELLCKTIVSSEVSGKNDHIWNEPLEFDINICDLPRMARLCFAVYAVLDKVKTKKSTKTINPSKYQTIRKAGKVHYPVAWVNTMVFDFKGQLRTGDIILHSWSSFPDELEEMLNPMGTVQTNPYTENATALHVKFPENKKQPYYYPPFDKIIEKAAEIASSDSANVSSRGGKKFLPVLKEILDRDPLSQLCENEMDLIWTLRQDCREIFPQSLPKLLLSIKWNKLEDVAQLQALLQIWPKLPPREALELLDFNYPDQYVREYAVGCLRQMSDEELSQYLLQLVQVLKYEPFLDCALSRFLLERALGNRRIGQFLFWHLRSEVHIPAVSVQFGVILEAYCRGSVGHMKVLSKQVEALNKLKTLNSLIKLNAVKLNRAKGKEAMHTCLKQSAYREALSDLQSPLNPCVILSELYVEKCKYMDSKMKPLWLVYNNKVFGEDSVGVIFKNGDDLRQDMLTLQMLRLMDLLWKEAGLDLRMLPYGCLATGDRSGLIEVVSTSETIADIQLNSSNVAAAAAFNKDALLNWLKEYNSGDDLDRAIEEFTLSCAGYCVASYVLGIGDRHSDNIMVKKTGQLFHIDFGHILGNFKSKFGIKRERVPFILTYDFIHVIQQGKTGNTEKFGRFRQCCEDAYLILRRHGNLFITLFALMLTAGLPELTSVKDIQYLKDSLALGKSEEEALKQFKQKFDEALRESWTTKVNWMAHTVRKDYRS

Work on `CC(Nc1ccc(F)c(F)c1)c1cc(C(=O)NCCCO)cc2ncc(N3CCOCC3)nc12` (stereo not drawn) [Compound 280] yielded a Kd (PI3Kβ) of 6 nM, a Kd (PI3Kδ) of 427 nM and a Kd (kinase enzymes [1]) of 5130 nM. The Kd (kinase enzymes [2]) was > 30200 nM, the Kd (kinase enzymes [3]) was 11200 nM and the IC50 ([4]; Homo sapiens, PC-3, 1 h) was ~275 nM. For the same compound, the IC50 ([5]; Homo sapiens, PC-3, 1 h) was 158 nM and the melting point was 164 °C.

With `CC(Nc1ccc(F)c(F)c1)c1cc(C(=O)NCCN(C)C)cc2ncc(N3CCOCC3)nc12` (stereo not drawn) [Compound 281] the Kd (PI3Kβ) was 0.3 nM, the Kd (PI3Kδ) was 91 nM and the Kd (kinase enzymes [1]) was 3160 nM. For the same compound, the Kd (kinase enzymes [2]) was > 30200 nM, the Kd (kinase enzymes [3]) was 3550 nM and the IC50 ([4]; Homo sapiens, PC-3, 1 h) was 15 nM. The IC50 ([5]; Homo sapiens, PC-3, 1 h) was 15 nM and the melting point was 80 °C.

With `CNCCNC(=O)c1cc(C(C)Nc2cccc(F)c2)c2nc(N3CCOCC3)cnc2c1` (stereo not drawn) [Compound 282] the Kd (PI3Kβ) was 0.2 nM, the Kd (PI3Kδ) was 68 nM and the Kd (kinase enzymes [1]) was 832 nM. For the same compound, the Kd (kinase enzymes [2]) was 23400 nM, the Kd (kinase enzymes [3]) was 1820 nM and the IC50 ([4]; Homo sapiens, PC-3, 1 h) was 7 nM. For the same compound, the IC50 ([5]; Homo sapiens, PC-3, 1 h) was 6 nM and the melting point was 100 °C.

In the case of `CC(Nc1ccc(F)c(F)c1)c1cc(C(=O)N2CCN3CCC[C@H]3C2)cc2ncc(N3CCOCC3)nc12` (stereo partly drawn) [Compound 287], the Kd (PI3Kβ) is reported as 13 nM, the Kd (PI3Kδ) is reported as 977 nM and the Kd (kinase enzymes [1]) is reported as 2690 nM. The Kd (kinase enzymes [2]) was > 30200 nM, the Kd (kinase enzymes [3]) was 26300 nM and the IC50 ([4]; Homo sapiens, PC-3, 1 h) was 151 nM. For the same compound, the IC50 ([5]; Homo sapiens, PC-3, 1 h) was 48 nM and the melting point was 80 °C.

With `CC(Nc1cc(F)c(F)c(F)c1)c1cc(C(=O)NCC(C)(C)O)cc2ncc(N3CCOCC3)nc12` (stereo not drawn) [Compound 292] the Kd (PI3Kβ) was 16 nM, the Kd (PI3Kδ) was 1700 nM and the Kd (kinase enzymes [1]) was 6610 nM. For the same compound, the Kd (kinase enzymes [2]) was > 30200 nM, the Kd (kinase enzymes [3]) was 27500 nM and the IC50 ([4]; Homo sapiens, PC-3, 1 h) was 437 nM. The IC50 ([5]; Homo sapiens, PC-3, 1 h) was 234 nM and the melting point was 80 °C.

Compound `Cc1ccc(NC(C)c2cc(C(=O)NCCO)cc3ncc(N4CCOCC4)nc23)cc1F` (stereo not drawn) [Compound 295] has a Kd (PI3Kβ) of 309 nM, a Kd (PI3Kδ) of 7760 nM and a Kd (kinase enzymes [1]) of 7240 nM. For the same compound, the Kd (kinase enzymes [2]) was 30900 nM, the Kd (kinase enzymes [3]) was 6310 nM and the IC50 ([4]; Homo sapiens, PC-3, 1 h) was > 513 nM. For the same compound, the IC50 ([5]; Homo sapiens, PC-3, 1 h) was > 513 nM and the melting point was 80 °C.

Compound `CN(C)C(=O)c1cc(C(CO)N(C)c2cccc(F)c2)c2nc(N3CCOCC3)cnc2c1` (stereo not drawn) [Compound 301] has a Kd (PI3Kβ) of 43 nM, a Kd (PI3Kδ) of 3240 nM and a Kd (kinase enzymes [1]) of 5370 nM. For the same compound, the Kd (kinase enzymes [2]) was 15100 nM, the Kd (kinase enzymes [3]) was 1510 nM and the IC50 ([4]; Homo sapiens, PC-3, 1 h) was > 513 nM. It also gave an IC50 ([5]; Homo sapiens, PC-3, 1 h) of 427 nM and a melting point of 315 °C.

For `CC(Nc1ccc(F)c(F)c1)c1cc(C(=O)N2CCC[C@H](O)C2)cc2ncc(N3CCOCC3)nc12` (stereo partly drawn) [Compound 302], the Kd (PI3Kβ) was 5 nM, the Kd (PI3Kδ) was 380 nM and the Kd (kinase enzymes [1]) was 1950 nM. For the same compound, the Kd (kinase enzymes [2]) was > 30200 nM, the Kd (kinase enzymes [3]) was 15500 nM and the IC50 ([4]; Homo sapiens, PC-3, 1 h) was 76 nM. For the same compound, the IC50 ([5]; Homo sapiens, PC-3, 1 h) was 76 nM and the melting point was 80 °C.

For `CC(Nc1ccc(F)c(F)c1)c1cc(CO)cc2ncc(N3CCOCC3)nc12` (stereo not drawn) [Compound 303], the Kd (PI3Kβ) was 9 nM, the Kd (PI3Kδ) was 457 nM and the Kd (kinase enzymes [1]) was 3550 nM. For the same compound, the Kd (kinase enzymes [2]) was 18600 nM, the Kd (kinase enzymes [3]) was 3890 nM and the IC50 ([4]; Homo sapiens, PC-3, 1 h) was 87 nM. For the same compound, the IC50 ([5]; Homo sapiens, PC-3, 1 h) was 79 nM and the melting point was 138 °C.

In the case of `Cc1c(F)cccc1CN(C)c1cc(C(=O)N2CC3(C2)CS(=O)(=O)C3)cc2ncc(N3CCOCC3)nc12` [Compound 308], the Kd (PI3Kβ) is reported as 324 nM, the Kd (PI3Kδ) is reported as 7240 nM and the Kd (kinase enzymes [1]) is reported as > 30200 nM. The Kd (kinase enzymes [2]) was > 30200 nM, the Kd (kinase enzymes [3]) was > 30200 nM and the IC50 ([4]; Homo sapiens, PC-3, 1 h) was > 513 nM. The IC50 ([5]; Homo sapiens, PC-3, 1 h) was > 513 nM and the melting point was 195 °C.

Work on `O=C(NCCO)c1cc(NCc2cccc(F)c2C2CCNCC2)c2nc(N3CCOCC3)cnc2c1` [Compound 317] yielded a Kd (PI3Kβ) of 13 nM, a Kd (PI3Kδ) of 708 nM and a Kd (kinase enzymes [1]) of 6170 nM. The Kd (kinase enzymes [2]) was > 30200 nM, the Kd (kinase enzymes [3]) was 20900 nM and the IC50 ([4]; Homo sapiens, PC-3, 1 h) was > 513 nM. The IC50 ([5]; Homo sapiens, PC-3, 1 h) was > 513 nM and the melting point was 167 °C.

`CC(Nc1ccc(F)c(F)c1)c1cc(C(=O)N(C)C2CCNC2)cc2ncc(N3CCOCC3)nc12` (stereo not drawn) [Compound 322b] showed a Kd (PI3Kβ) of 0.3 nM, a Kd (PI3Kδ) of 68 nM and a Kd (kinase enzymes [1]) of 2190 nM. The Kd (kinase enzymes [2]) was > 30200 nM, the Kd (kinase enzymes [3]) was 6170 nM and the IC50 [4] was 42 nM. It also gave an IC50 [5] of 26 nM and a melting point of 80 °C.
